Experiments:
[1] = molecular target: T1, FSHR (Homo sapiens, UniProt P23945); experiment: EC50 of cyclic AMP production in CHO FSHR cells + EC20 FSH (Assay A); type: cell-based; settings: cyclic AMP production in CHO FSHR cells + EC20 FSH (0.265 pM), HTRF
T1 construct: expressed in transfected cells; host or cells: CHO (Cho-FSHR-LUC-1-1-43)
T1 sequence (P23945 18-695): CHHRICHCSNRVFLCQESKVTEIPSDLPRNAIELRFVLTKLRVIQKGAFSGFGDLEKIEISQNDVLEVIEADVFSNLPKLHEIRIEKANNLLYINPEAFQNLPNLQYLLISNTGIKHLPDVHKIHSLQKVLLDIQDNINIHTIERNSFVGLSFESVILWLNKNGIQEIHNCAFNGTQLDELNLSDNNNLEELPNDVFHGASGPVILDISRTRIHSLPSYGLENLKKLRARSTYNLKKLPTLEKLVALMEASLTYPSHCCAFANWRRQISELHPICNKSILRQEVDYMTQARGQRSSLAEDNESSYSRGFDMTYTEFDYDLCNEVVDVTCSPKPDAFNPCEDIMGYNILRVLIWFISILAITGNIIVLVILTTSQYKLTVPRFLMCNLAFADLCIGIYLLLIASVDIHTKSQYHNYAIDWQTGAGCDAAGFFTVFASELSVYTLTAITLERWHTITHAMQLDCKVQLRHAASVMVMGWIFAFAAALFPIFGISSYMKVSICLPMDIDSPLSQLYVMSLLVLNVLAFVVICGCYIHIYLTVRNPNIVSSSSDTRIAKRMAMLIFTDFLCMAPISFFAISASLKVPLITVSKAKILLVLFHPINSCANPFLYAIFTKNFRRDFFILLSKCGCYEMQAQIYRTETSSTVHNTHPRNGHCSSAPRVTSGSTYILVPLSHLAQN
How it was run: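 cAMP was detected by HTRF as the 665/620 nm ratio. The CHO-FSHR cells had first been exposed for 1 h at 37° C to test compound together with 0.265 pM FSH (EC20) and 200 μM IBMX. Responses are given as percent of the FSH standard maximum.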

[2] = molecular target: T2, follicle-stimulating hormone (FSH) receptor (Rattus norvegicus, UniProt P20395); experiment: Rat granulosa EC50 FSH (Assay B); type: cell-based
T2 construct: endogenous in cells; host or cells: rat granulosa cells
T2 sequence (P20395 18-692): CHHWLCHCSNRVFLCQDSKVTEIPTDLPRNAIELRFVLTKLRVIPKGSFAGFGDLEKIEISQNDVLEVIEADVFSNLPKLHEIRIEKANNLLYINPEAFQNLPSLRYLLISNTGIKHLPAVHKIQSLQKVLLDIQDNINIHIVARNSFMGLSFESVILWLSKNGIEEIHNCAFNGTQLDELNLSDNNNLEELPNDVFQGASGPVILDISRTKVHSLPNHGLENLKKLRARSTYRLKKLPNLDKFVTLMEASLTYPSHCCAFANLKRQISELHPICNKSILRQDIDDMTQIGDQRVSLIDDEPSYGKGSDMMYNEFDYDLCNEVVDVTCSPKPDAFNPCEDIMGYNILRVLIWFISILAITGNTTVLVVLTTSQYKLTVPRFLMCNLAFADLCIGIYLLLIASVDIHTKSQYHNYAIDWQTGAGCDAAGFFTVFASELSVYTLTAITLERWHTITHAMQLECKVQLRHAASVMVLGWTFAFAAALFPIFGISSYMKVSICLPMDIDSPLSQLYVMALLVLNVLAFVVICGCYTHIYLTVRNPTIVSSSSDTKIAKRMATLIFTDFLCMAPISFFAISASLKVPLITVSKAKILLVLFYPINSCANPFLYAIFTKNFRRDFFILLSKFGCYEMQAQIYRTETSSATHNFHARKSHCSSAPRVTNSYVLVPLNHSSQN
Procedure: Example 25. Rat granulosa EC50 FSH (Assay B)
The assay was performed pursuant to the teaching of Yanofsky et al. (2006) Allosteric activation of the follicle-stimulating hormone (FSH) receptor by selective, nonpeptide agonists (JBC 281(19): 13226-13233, which is incorporated by reference in the disclosure of the invention).

Structure (SMILES): [2H]C([2H])([2H])Oc1cc(Cl)cc(-n2nc(C(=O)N(C)C(C)(C)C)c3c2-c2cc(-c4cncc(C#N)c4)c(OC([2H])([2H])[2H])cc2OC3)c1 [Compound 36, N-tert-butyl-1-(3-chloro-5-D3-methoxyphenyl)-8-(5-cyanopyridin-3-yl)-7-D3-methoxy-N-methyl-1H,4H-chromeno[4,3-c]pyrazole-3-carboxamide]
- EC50 [1]: < 10 nM
- EC50 [2]: 10 to 100 nM

Structure (SMILES): COc1cc(OC)cc(-n2nc(C(=O)N(C)C(C)(C)C)c3c2-c2cc(-c4ccn(C)n4)c(OC)cc2OC3)c1 [Compound 37, N-tert-butyl-1-(3,5-dimethoxyphenyl)-7-methoxy-N-methyl-8-(1-methyl-1H-pyrazol-3-yl)-1,4-dihydrochromeno[4,3-c]pyrazole-3-carboxamide]
- EC50 [1]: 10 to 100 nM
- EC50 [2]: > 500 nM

Structure (SMILES): COc1cc(OC)cc(-n2nc(C(=O)N(C)C(C)(C)C)c3c2-c2cc(-c4cc[nH]c4)c(OC)cc2OC3)c1 [Compound 38]
- EC50 [1]: 10 to 100 nM
- EC50 [2]: 101 to 500 nM

Structure (SMILES): COc1cc(OC)cc(-n2nc(C(=O)N3CC[S+]([O-])CC3(C)C)c3c2-c2cc(-c4ccn(C)n4)c(OC)cc2OC3)c1 (stereo not shown) [Compound 39, (1-(3,5-dimethoxyphenyl)-7-methoxy-8-(1-methyl-1H-pyrazol-3-yl)-1,4-dihydrochromeno[4,3-c]pyrazol-3-yl)-(S-oxo-3,3-dimethylthiomorpholino)methanone]
- EC50 [1]: 10 to 100 nM
- EC50 [2]: 101 to 500 nM

Structure (SMILES): COc1cc(OC)cc(-n2nc(C(=O)N3CC[S+]([O-])CC3(C)C)c3c2-c2cc(-c4cccnc4F)c(OC)cc2OC3)c1 (stereo not shown) [Compound 40, (1-(3,5-dimethoxyphenyl)-8-(2-fluoropyridin-3-yl)-7-methoxy-1,4-dihydrochromeno[4,3-c]pyrazol-3-yl)(S-oxo-3,3-dimethylthiomorpholino)methanone]
- EC50 [1]: < 10 nM
- EC50 [2]: 10 to 100 nM

Structure (SMILES): COc1cc(OC)cc(-n2nc(C(=O)N3CC[S+]([O-])CC3(C)C)c3c2-c2cc(-c4ccccn4)c(OC)cc2OC3)c1 (stereo not shown) [Compound 41, (1-(3,5-dimethoxyphenyl)-7-methoxy-8-(pyridin-2-yl)-1,4-dihydrochromeno[4,3-c]pyrazol-3-yl)(S-oxo-3,3-dimethylthiomorpholino)methanone]
- EC50 [1]: 10 to 100 nM
- EC50 [2]: 101 to 500 nM

Structure (SMILES): COc1cc(OC)cc(-n2nc(C(=O)N3CCOCC3(C)C)c3c2-c2cc(-c4cccnc4F)c(OC)cc2OC3)c1 [Compound 42, (1-(3,5-dimethoxyphenyl)-8-(2-fluoropyridin-3-yl)-7-methoxy-1,4-dihydrochromeno[4,3-c]pyrazol-3-yl)(3,3-dimethylmorpholino)methanone]
- EC50 [1]: < 10 nM
- EC50 [2]: 10 to 100 nM

Structure (SMILES): COc1cc(OC)cc(-n2nc(C(=O)N3CCOCC3(C)C)c3c2-c2cc(-c4cncc(C)c4)c(OC)cc2OC3)c1 [Compound 43, (1-(3,5-dimethoxyphenyl)-7-methoxy-8-(5-methylpyridin-3-yl)-1,4-dihydrochromeno[4,3-c]pyrazol-3-yl)(3,3-dimethylmorpholino)methanone]
- EC50 [1]: < 10 nM
- EC50 [2]: 10 to 100 nM

Structure (SMILES): COc1cc(OC)cc(-n2nc(C(=O)N3CCOCC3(C)C)c3c2-c2cc(-c4cncc(C#N)c4)c(OC)cc2OC3)c1 [Compound 44, 5-(1-(3,5-dimethoxyphenyl)-3-(3,3-dimethylmorpholine-4-carbonyl)-7-methoxy-1,4-dihydrochromeno[4,3-c]pyrazol-8-yl)nicotinonitrile]
- EC50 [1]: < 10 nM
- EC50 [2]: 10 to 100 nM

Structure (SMILES): COc1cc(OC)cc(-n2nc(C(=O)N(C)C(C)(C)C)c3c2-c2cc(-c4ccccn4)c(OC)cc2OC3)c1 [Compound 46, N-tert-butyl-1-(3,5-dimethoxyphenyl)-7-methoxy-N-methyl-8-(pyridin-2-yl)-1,4-dihydrochromeno[4,3-c]pyrazole-3-carboxamide]
- EC50 [1]: 10 to 100 nM
- EC50 [2]: 101 to 500 nM

Structure (SMILES): COc1cc2c(cc1-c1ccn(C)n1)-c1c(c(C(=O)N(C)C(C)(C)C)nn1-c1cc(F)cc(F)c1)CO2 [Compound 48, N-tert-butyl-1-(3,5-difluorophenyl)-7-methoxy-N-methyl-8-(1-methyl-1H-pyrazol-3-yl)-1,4-dihydrochromeno[4,3-c]pyrazole-3-carboxamide]
- EC50 [1]: 10 to 100 nM
- EC50 [2]: 101 to 500 nM

Structure (SMILES): COc1cc2c(cc1-c1cncc(C#N)c1)-c1c(c(C(=O)N3CC[S+]([O-])CC3(C)C)nn1-c1cc(F)cc(F)c1)CO2 (stereo not shown) [Compound 49]
- EC50 [1]: < 10 nM
- EC50 [2]: 10 to 100 nM

Structure (SMILES): COc1cc2c(cc1-c1cncc(C#N)c1)-c1c(c(C(=O)N3CCC(O)CC3(C)C)nn1-c1cc(F)cc(F)c1)CO2 (stereo not shown) [Compound 50, 5-(1-(3,5-difluorophenyl)-3-(4-hydroxy-2,2-dimethylpiperidine-1-carbonyl)-7-methoxy-1,4-dihydrochromeno[4,3-c]pyrazol-8-yl)nicotinonitrile]
- EC50 [1]: < 10 nM
- EC50 [2]: 101 to 500 nM

Structure (SMILES): COc1cc2c(cc1-c1ccn(C)n1)-c1c(c(C(=O)N3CCOCC3(C)C)nn1-c1cc(F)cc(F)c1)CO2 [Compound 51, (1-(3,5-difluorophenyl)-7-methoxy-8-(1-methyl-1H-pyrazol-3-yl)-1,4-dihydrochromeno[4,3-c]pyrazol-3-yl)(3,3-dimethylmorpholino)methanone]
- EC50 [1]: 10 to 100 nM
- EC50 [2]: 101 to 500 nM

Structure (SMILES): COc1cc(F)cc(-n2nc(C(=O)N(C)C(C)(C)C)c3c2-c2cc(-c4ccn(C)n4)c(OC)cc2OC3)c1 [Compound 52, N-tert-butyl-1-(3-fluoro-5-methoxyphenyl)-7-methoxy-N-methyl-8-(1-methyl-1H-pyrazol-3-yl)-1,4-dihydrochromeno[4,3-c]pyrazole-3-carboxamide]
- EC50 [1]: 10 to 100 nM
- EC50 [2]: 101 to 500 nM

Structure (SMILES): COc1cc(F)cc(-n2nc(C(=O)N3CCOCC3(C)C)c3c2-c2cc(-c4ccn(C)n4)c(OC)cc2OC3)c1 [Compound 53, (3,3-dimethylmorpholino)(1-(3-fluoro-5-methoxyphenyl)-7-methoxy-8-(1-methyl-1H-pyrazol-3-yl)-1,4-dihydrochromeno[4,3-c]pyrazol-3-yl)methanone]
- EC50 [1]: 10 to 100 nM
- EC50 [2]: 101 to 500 nM

Structure (SMILES): COc1cc(F)cc(-n2nc(C(=O)N(C)C(C)(C)C)c3c2-c2cc(-c4cncc(C#N)c4)c(OC)cc2OC3)c1 [Compound 54, N-tert-butyl-8-(5-cyanopyridin-3-yl)-1-(3-fluoro-5-methoxyphenyl)-7-methoxy-N-methyl-1,4-dihydrochromeno[4,3-c]pyrazole-3-carboxamide]
- EC50 [1]: < 10 nM
- EC50 [2]: 10 to 100 nM

Structure (SMILES): COc1cc2c(cc1-c1cccnc1F)-c1c(c(C(=O)N(C)C(C)(C)C)nn1-c1ccsc1)CO2 [Compound 55, N-tert-butyl-8-(2-fluoropyridin-3-yl)-7-methoxy-N-methyl-1-(thiophen-3-yl)-1,4-dihydrochromeno[4,3-c]pyrazole-3-carboxamide]
- EC50 [1]: < 10 nM
- EC50 [2]: 10 to 100 nM

Structure (SMILES): COc1cc2c(cc1-c1ccn(C)n1)-c1c(c(C(=O)N3CC[S+]([O-])CC3(C)C)nn1-c1ccsc1)CO2 (stereo not shown) [Compound 56, (1-(thiophen-3-yl)-7-methoxy-8-(1-methyl-1H-pyrazol-3-yl)-1,4-dihydrochromeno[4,3-c]pyrazol-3-yl)(S-oxo-3,3-dimethylthiomorpholino)methanone]
- EC50 [1]: 10 to 100 nM
- EC50 [2]: 101 to 500 nM

Structure (SMILES): COc1cc2c(cc1-c1ccn(C)n1)-c1c(c(C(=O)N3CCC(O)CC3(C)C)nn1-c1ccsc1)CO2 (stereo not shown) [Compound 57, (4-hydroxy-2,2-dimethylpiperidin-1-yl)(7-methoxy-8-(1-methyl-1H-pyrazol-3-yl)-1-(thiophen-3-yl)-1,4-dihydrochromeno[4,3-c]pyrazol-3-yl)methanone]
- EC50 [1]: 10 to 100 nM
- EC50 [2]: 101 to 500 nM

Source: patent publication US10941152B2, “Pyrazole compounds as modulators of FSHR and uses thereof” (TOCOPHERX, INC., priority 2014, dated 2021)
